Columns and labels:
Type in all cases: biochemical
LRRK2 = LRRK2 (Homo sapiens, UniProt Q5S007); assay: LRRK2 enzyme activity, ADP-Glo kinase assay; design: purchased Invitrogen PR8604B; details: purified human LRRK2, ATP 10 μM, 25° C., 2 hours
Procedure: To evaluate the inhibitory activity of the compound according to the present invention against LRRK2 and JNKs, an experiment was performed as follows.
The compound of Example 7 was reacted with a purified human LRRK2 (Invitrogen #PR8604B) enzyme to evaluate an ability of the compound of Example 7 to inhibit the enzyme using a method as described below. A composition of 40 mM Tris-HCl (pH 7.4), 20 mM MgCl2, 0.5 mg/mL BSA, and 50 μM DTT was used as a reaction buffer, and all reactions of test substances were performed in the reaction buffer. The compound was diluted […] from a 10 mM DMSO stock using a serial dilution method, and enzyme activity was measured at final compound concentrations of 50, 10, 2, 0.4, 0.08, 0.016, 0.0032, 0.00064, 0.000128, 0.0000256, 0.00000512, and 0.000001024 μM. In the test, purified ATP (10 μM) and an enzyme substrate (0.2 μg) were reacted with a human LRRK2 (25 ng) enzyme at 25° C. for 2 hours, and the enzyme activity was then determined using an in vitro ADP-Glo™ kinase assay (Promega). An enzyme-activity reaction solution, an ADP-Glo reaction solution, and an enzyme-ability detection solution were reacted at a ratio of 2:2:1 to measure a degree of inhibition of the enzyme activity with luminescence. […]

JNK2 = target: T1, JNK2 (Homo sapiens, UniProt P45984); assay: JNK enzyme activity, Kinase HotSpot service (Reaction Biology Corporation); details: ATP concentration of 10 μM
T1 construct: purchased DiscoverX Corp. (ScanMAX Kinase panel, commissioned)
T1 sequence (P45984 whole entry): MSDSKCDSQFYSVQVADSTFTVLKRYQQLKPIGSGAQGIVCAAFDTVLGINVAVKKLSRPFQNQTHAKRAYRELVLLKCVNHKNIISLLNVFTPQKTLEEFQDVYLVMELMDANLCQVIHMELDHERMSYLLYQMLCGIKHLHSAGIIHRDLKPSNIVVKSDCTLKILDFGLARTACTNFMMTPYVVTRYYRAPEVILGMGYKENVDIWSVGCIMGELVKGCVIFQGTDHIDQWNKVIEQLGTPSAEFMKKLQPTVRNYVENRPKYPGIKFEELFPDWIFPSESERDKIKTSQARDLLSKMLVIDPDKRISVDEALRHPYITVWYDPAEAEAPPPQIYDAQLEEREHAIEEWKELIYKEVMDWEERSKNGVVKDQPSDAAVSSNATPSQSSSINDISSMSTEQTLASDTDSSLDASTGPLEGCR
Procedure: (§1) IC50 values of the compound of Example 7 for the enzymes were measured using the Kinase HotSpot service (Reaction Biology Corporation), and a test was performed under the same conditions at an ATP concentration of 10 μM. The concentration of the compound was measured at a 3-fold concentration gradient from the peak concentration of 10 mM.
(§2) All the experimental methods were performed as provided in the Kinase HotSpot Customer Protocol (http://www.reactionbiology.com//Kinase_Assay_Protocol).

JNK3 = target: T2, JNK3 (Homo sapiens, UniProt P53779); assay: as above; details: ATP concentration of 10 μM
T2 construct: purchased DiscoverX Corp. (ScanMAX Kinase panel, commissioned)
T2 sequence (P53779 whole entry): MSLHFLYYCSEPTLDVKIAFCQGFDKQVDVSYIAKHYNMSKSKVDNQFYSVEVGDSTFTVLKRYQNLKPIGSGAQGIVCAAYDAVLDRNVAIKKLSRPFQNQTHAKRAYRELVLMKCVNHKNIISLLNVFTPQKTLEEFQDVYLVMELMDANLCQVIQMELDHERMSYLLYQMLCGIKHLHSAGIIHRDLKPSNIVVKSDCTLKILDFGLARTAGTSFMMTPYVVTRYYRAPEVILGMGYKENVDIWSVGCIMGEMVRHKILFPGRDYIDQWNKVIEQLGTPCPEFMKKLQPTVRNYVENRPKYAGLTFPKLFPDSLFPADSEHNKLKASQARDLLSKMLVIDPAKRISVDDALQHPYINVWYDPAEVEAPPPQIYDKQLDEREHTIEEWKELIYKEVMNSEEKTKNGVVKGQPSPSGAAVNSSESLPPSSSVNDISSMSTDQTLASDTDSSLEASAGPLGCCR
Procedure: as §1, §2

JNK1 = target: T3, JNK1 (Homo sapiens, UniProt P45983); assay: as above; details: ATP concentration of 10 μM
T3 construct: purchased DiscoverX Corp. (ScanMAX Kinase panel, commissioned)
T3 sequence (P45983 whole entry): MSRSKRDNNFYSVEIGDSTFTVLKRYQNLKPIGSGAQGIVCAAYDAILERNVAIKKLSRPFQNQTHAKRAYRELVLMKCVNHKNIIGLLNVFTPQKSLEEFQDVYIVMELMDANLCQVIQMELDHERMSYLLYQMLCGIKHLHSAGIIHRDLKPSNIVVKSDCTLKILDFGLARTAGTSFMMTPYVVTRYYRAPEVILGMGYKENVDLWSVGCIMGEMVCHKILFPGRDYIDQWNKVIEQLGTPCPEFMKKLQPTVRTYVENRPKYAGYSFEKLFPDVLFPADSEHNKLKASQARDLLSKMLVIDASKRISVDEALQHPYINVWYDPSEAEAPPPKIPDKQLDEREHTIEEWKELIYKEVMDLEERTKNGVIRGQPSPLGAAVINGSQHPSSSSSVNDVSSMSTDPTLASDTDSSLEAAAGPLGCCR
Procedure: as §1, §2

Sequence of LRRK2 (Q5S007 970-2527 limits assumed): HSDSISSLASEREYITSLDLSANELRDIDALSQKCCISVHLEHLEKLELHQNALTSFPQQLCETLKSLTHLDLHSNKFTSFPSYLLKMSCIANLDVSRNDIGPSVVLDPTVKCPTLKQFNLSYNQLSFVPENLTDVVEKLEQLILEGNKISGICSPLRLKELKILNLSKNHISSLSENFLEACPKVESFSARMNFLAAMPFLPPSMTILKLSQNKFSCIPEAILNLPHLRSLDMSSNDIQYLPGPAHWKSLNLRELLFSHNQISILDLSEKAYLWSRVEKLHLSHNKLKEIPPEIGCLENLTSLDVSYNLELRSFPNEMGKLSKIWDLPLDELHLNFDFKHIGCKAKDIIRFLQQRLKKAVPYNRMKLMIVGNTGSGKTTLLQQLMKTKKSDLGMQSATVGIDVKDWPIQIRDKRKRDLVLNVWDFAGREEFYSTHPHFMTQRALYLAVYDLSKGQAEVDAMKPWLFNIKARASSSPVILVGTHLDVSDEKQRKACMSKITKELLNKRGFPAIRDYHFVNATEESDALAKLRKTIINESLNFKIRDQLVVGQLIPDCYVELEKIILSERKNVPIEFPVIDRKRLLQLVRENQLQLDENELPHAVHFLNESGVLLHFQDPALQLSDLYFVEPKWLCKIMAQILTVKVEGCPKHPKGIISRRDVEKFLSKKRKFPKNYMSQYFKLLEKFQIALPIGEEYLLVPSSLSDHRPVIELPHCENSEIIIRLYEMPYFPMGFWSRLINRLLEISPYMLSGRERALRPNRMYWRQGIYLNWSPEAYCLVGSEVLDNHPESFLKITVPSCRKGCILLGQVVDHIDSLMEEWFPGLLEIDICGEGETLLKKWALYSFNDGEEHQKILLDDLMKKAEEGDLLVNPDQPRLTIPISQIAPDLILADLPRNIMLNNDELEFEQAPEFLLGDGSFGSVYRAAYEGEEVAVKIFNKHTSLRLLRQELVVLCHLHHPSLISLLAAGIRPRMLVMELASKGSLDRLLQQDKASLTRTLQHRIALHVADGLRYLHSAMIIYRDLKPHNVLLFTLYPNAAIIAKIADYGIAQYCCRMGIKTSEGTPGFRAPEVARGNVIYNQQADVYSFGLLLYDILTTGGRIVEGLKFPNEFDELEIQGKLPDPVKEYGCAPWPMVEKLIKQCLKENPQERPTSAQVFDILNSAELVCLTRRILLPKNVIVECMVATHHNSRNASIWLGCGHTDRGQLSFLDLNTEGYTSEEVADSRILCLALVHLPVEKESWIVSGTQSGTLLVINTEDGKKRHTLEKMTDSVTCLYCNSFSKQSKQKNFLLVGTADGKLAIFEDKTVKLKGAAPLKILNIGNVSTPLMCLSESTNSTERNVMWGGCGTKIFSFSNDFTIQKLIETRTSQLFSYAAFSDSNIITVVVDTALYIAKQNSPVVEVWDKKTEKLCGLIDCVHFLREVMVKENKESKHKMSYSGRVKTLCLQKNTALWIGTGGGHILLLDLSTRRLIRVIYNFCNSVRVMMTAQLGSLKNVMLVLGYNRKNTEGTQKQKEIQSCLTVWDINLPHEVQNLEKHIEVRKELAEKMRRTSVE

COc1cc(-c2ccnn2C)ccc1Nc1nc(NC2CCCCC2)c2c(C#N)c[nH]c2n1 [Example 7, 4-(cyclohexylamino)-2-((2-methoxy-4-(1-methyl-1H-pyrazol-5-yl)phenyl)amino)-7H-pyrrolo[2,3-d] pyrimidine-5-carbonitrile]
IC50 (LRRK2): < 1000 nM
IC50 (JNK2): < 100 nM
IC50 (JNK3): < 100 nM
IC50 (JNK1): < 100 nM

Reference: patent US20230183243A1, “HETEROARYL DERIVATIVES AND PHARMACEUTICAL COMPOSITION COMPRISING SAME AS ACTIVE INGREDIENT” (VORONOI INC., priority 2019, published 2023)
